Results from US20060069132A1, “Azolecarboxamide herbicides” (priority 2004, published 2006).

What was measured:
corn [1] = experiment: Test B pre-/postemergence herbicide test; assay type: in vivo, Zea mays; conditions: for Corn plant response rating: postemergence
Summary of the method: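 Formulation: non-phytotoxic solvent mix with surfactant. Timing: preemergence on seed and postemergence on 2–18 cm plants, applied concurrently. Readout after 13–15 d greenhouse: visual 0–100 control rating against controls.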

wild oat = experiment: Test B postemergence herbicide test; assay type: in vivo, Avena fatua; conditions: postemergence
Summary of the method: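 Each value is a visual 0–100 response rating taken against controls 13 to 15 days after treatment in the greenhouse. Plants received formulated chemical postemergence at the 1- to 4-leaf stage or, in flooded paddy, at the 2-leaf stage.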

Surinam grass = experiment: Test C pre-/postemergence herbicide test; assay type: in vivo, Urochloa decumbens; conditions: preemergence; for Plant response rating (0 = no effect, 100 = complete control), Surinam Grass: 125 g ai/ha
Source text: (§1) Seeds of plant species selected from bermudagrass (Cynodon dactylon (L.) Pers.), Surinam grass (Urochloa decumbens (Staph) R. D. Webster, previously named Brachiaria decumbens Stapf), cocklebur (Xanthium strumarium L.), corn (Zea mays L.), large crabgrass (Digitaria sanguinalis (L.) Scop.), woolly cupgrass (Eriochloa villosa (Thunb.) Kunth), giant foxtail (Setaria faberi Herrm.), goosegrass (Eleusine indica (L.) Gaertn.), johnsongrass (Sorghum halepense (L.) Pers.), kochia (Kochia scoparia (L.) Schrad.), lambsquarters (Chenopodium album L.), morningglory (Ipomoea coccinea L.), eastern black nightshade (Solanum ptycanthum Dunal), yellow nutsedge (Cyperus esculentus L.), pigweed (Amaranthus retroflexus L.), common ragweed (Ambrosia elatior L.), soybean (Glycine max (L.) Merr.), common (oilseed) sunflower (Helianthus annuus L.) and velvetleaf (Abutilon theophrasti Medik.) were planted and treated preemergence with test chemicals formulated in a non-phytotoxic solvent mixture which included a surfactant.
(§2) At the same time, plants selected from these crop and weed species and also winter barley (Hordeum vulgare L.), blackgrass (Alopecurus myosuroides Huds.), canarygrass (Phalaris minor Retz.), chickweed (Stellaria media (L.) Vill.), downy bromegrass (Bromus tectorum L.), green foxtail (Setaria viridis (L.) Beauv.), Italian ryegrass (Lolium multiflorum Lam.), wheat (Triticum aestivum L.), wild oat (Avenafatua L.) and windgrass (Apera spica-venti (L.) Beauv.) were treated with postemergence applications of some of the test chemicals formulated in the same manner. Plants ranged in height from 2 to 18 cm (1- to 4-leaf stage) for postemergence treatments. Plant species in the flooded paddy test consisted of rice (Oryza sativa), smallflower umbrella sedge (Cyperus difformis L.), ducksalad (Heteranthera limosa (Sw.) Willd.) and barnyardgrass (Echinochloa crus-galli (L.) Beauv.) grown to the 2-leaf stage for testing. Treated plants and controls were maintained in a greenhouse for 12 to 14 days, after which time all species were compared to controls and visually evaluated. Plant response ratings, summarized in Table C, are based on a scale of 0 to 100 where 0 is no effect and 100 is complete control. A dash (-) response means no test result.

corn [2] = experiment: Test C pre-/postemergence herbicide test; assay type: in vivo, Zea mays; conditions: preemergence
Source text: as §1, §2

large crabgrass = experiment: Test C pre-/postemergence herbicide test; assay type: in vivo, Digitaria sanguinalis; conditions: preemergence
Source text: as §1, §2

johnsongrass = experiment: Test C pre-/postemergence herbicide test; assay type: in vivo, Sorghum halepense; conditions: preemergence
Source text: as §1, §2

yellow nutsedge = experiment: Test C pre-/postemergence herbicide test; assay type: in vivo, Cyperus esculentus; conditions: preemergence
Source text: as §1, §2

pigweed = experiment: Test C pre-/postemergence herbicide test; assay type: in vivo, Amaranthus retroflexus; conditions: preemergence
Source text: as §1, §2

soybean = experiment: Test C pre-/postemergence herbicide test; assay type: in vivo, Glycine max; conditions: preemergence; for Plant response rating (0 = no effect, 100 = complete control), Soybean: 125 g ai/ha
Source text: as §1, §2

velvetleaf = experiment: Test C pre-/postemergence herbicide test; assay type: in vivo, Abutilon theophrasti; conditions: preemergence; for Plant response rating (0 = no effect, 100 = complete control), Velvetleaf: 125 g ai/ha
Source text: as §1, §2

[3] = 125 g ai/ha, visual rating, scale 0 (no effect) to 100 (complete control)
[4] = 500 g ai/ha, scale 0 to 100, 0 is no effect, 100 is complete control
[5] = 500 g ai/ha, scale 0 to 100 (0 no effect, 100 complete control), visual, 12 to 14 days
[6] = 125 g ai/ha, scale 0 (no effect) to 100 (complete control), visual, 12 to 14 days

Row | SMILES | Corn plant response rating (corn [1]; [3]) | Corn plant response rating (corn [1]; [4]) | Oat, Wild plant response rating (wild oat; [3]) | Oat, Wild plant response rating (wild oat; [4]) | Plant response rating, Surinam Grass (Surinam grass; 62 g ai/ha, scale 0 to 100) | Plant response rating, Surinam Grass (Surinam grass; 250 g ai/ha, scale 0-100) | Plant response rating, Surinam Grass (Surinam grass; [5]) | Plant response rating, Corn (corn [2]; 62 g ai/ha, scale 0 to 100) | Plant response rating, Corn (corn [2]; 250 g ai/ha, scale 0-100) | Plant response rating, Corn (corn [2]; [5]) | Plant response rating, Crabgrass, Large (large crabgrass; 250 g ai/ha, scale 0-100) | Plant response rating, Crabgrass, Large (large crabgrass; [5]) | Plant response rating, Johnsongrass (johnsongrass; 62 g ai/ha, scale 0 to 100) | Plant response rating, Johnsongrass (johnsongrass; 250 g ai/ha, scale 0-100) | Plant response rating, Johnsongrass (johnsongrass; [5]) | Plant response rating, Nutsedge, Yellow (yellow nutsedge; 62 g ai/ha, scale 0 to 100) | Plant response rating, Nutsedge, Yellow (yellow nutsedge; 250 g ai/ha, scale 0-100) | Plant response rating, Nutsedge, Yellow (yellow nutsedge; [5]) | Plant response rating, Pigweed (pigweed; 62 g ai/ha, scale 0 to 100) | Plant response rating, Pigweed (pigweed; 250 g ai/ha, scale 0-100) | other results
1 | CCN1N=C(C(C)(C)C)CC1C(=O)Nc1cc(C(=O)N2CCCC2)ccc1F (racemic) [Compound 309] | 20 | 60 | 20 | 40 | 50 | 90 | 100 | 5 | 40 | 60 | 100 | 100 | 75 | 95 | 100 | 5 | 45 | 60 | 80 | 100 | Corn plant response rating (0 to 100 scale) (corn [1]; 125 g ai/ha, 0 = no effect, 100 = complete control, preemergence): 60; Plant response rating, Corn (corn [1]; 500 g ai/ha, visual rating, 0 = no effect, 100 = complete control, preemergence): 90; Plant response rating, Corn (corn [2]; [6]): 20; Plant response rating, Crabgrass, Large (large crabgrass; [6]): 80; Plant response rating, Johnsongrass (johnsongrass; [6]): 80; Plant response rating, Nutsedge, Yellow (yellow nutsedge; [6]): 30; Plant response rating, Pigweed (pigweed; [6]): 100; Plant response rating, Pigweed (pigweed; [5]): 100; Plant response rating, Soybean (soybean; 62 g ai/ha, scale 0 to 100): 20; Plant response rating, Soybean (soybean; 250 g ai/ha, scale 0-100): 80; Plant response rating, Soybean (soybean; [5]): 80; Plant response rating, Velvetleaf (velvetleaf; 62 g ai/ha, scale 0 to 100): 5; Plant response rating, Velvetleaf (velvetleaf; 250 g ai/ha, scale 0-100): 75; Plant response rating, Velvetleaf (velvetleaf; [5]): 100
2 | CCC1=NN(C(C)(C)C)CC1C(=O)Nc1cc(C(=O)N2CC=CC2)ccc1F (racemic) [Compound 340] | 0 | 20 | 20 | 30 | 0 | 65 | 85 | 5 | 45 | 50 | 100 | 100 | 15 | 50 | 90 | 0 | 0 | 60 | 70 | 100 | Plant response rating (0 = no effect, 100 = complete control), Surinam Grass (Surinam grass): 60; Plant response rating (0 = no effect, 100 = complete control), Corn (corn [2]; 125 g ai/ha): 45; Plant response rating, Crabgrass, Large (large crabgrass; 62 g ai/ha, scale 0 to 100): 50; Plant response rating (0 = no effect, 100 = complete control), Crabgrass, Large (large crabgrass; 125 g ai/ha): 70; Plant response rating (0 = no effect, 100 = complete control), Johnsongrass (johnsongrass; 125 g ai/ha): 50; Plant response rating (0 = no effect, 100 = complete control), Nutsedge, Yellow (yellow nutsedge; 125 g ai/ha): 0; Plant response rating (0 = no effect, 100 = complete control), Pigweed (pigweed; 125 g ai/ha): 85; Plant response rating, Pigweed (pigweed; [5]): 100; Plant response rating, Soybean (soybean; 62 g ai/ha, scale 0 to 100): 0; Plant response rating (0 = no effect, 100 = complete control), Soybean (soybean): 0; Plant response rating, Soybean (soybean; 250 g ai/ha, scale 0-100): 0; Plant response rating, Soybean (soybean; [5]): 10; Plant response rating, Velvetleaf (velvetleaf; 62 g ai/ha, scale 0 to 100): 0; Plant response rating (0 = no effect, 100 = complete control), Velvetleaf (velvetleaf): 60; Plant response rating, Velvetleaf (velvetleaf; 250 g ai/ha, scale 0-100): 95; Plant response rating, Velvetleaf (velvetleaf; [5]): 100
3 | CCC1=NN(C(C)(C)C)CC1C(=O)Nc1cc(C(=O)N2CCCC2)ccc1F (racemic) [Compound 341] | 0 | 10 | 0 | 30 | 60 | 100 | 100 | 10 | 85 | 90 | 90 | 100 | 15 | 100 | 100 | 0 | 30 | 60 | 95 | 100 | Plant response rating (0 = no effect, 100 = complete control), Surinam Grass (Surinam grass): 95; Plant response rating (0 = no effect, 100 = complete control), Corn (corn [2]; 125 g ai/ha): 60; Plant response rating, Crabgrass, Large (large crabgrass; 62 g ai/ha, scale 0 to 100): 50; Plant response rating (0 = no effect, 100 = complete control), Crabgrass, Large (large crabgrass; 125 g ai/ha): 80; Plant response rating (0 = no effect, 100 = complete control), Johnsongrass (johnsongrass; 125 g ai/ha): 85; Plant response rating (0 = no effect, 100 = complete control), Nutsedge, Yellow (yellow nutsedge; 125 g ai/ha): 0; Plant response rating (0 = no effect, 100 = complete control), Pigweed (pigweed; 125 g ai/ha): 95; Plant response rating, Pigweed (pigweed; [5]): 100; Plant response rating, Soybean (soybean; 62 g ai/ha, scale 0 to 100): 0; Plant response rating (0 = no effect, 100 = complete control), Soybean (soybean): 20; Plant response rating, Soybean (soybean; 250 g ai/ha, scale 0-100): 70; Plant response rating, Soybean (soybean; [5]): 100; Plant response rating, Velvetleaf (velvetleaf; 62 g ai/ha, scale 0 to 100): 30; Plant response rating (0 = no effect, 100 = complete control), Velvetleaf (velvetleaf): 60; Plant response rating, Velvetleaf (velvetleaf; 250 g ai/ha, scale 0-100): 100; Plant response rating, Velvetleaf (velvetleaf; [5]): 100
4 | CCC1=NN(C(C)(C)C)CC1C(=O)Nc1cc(C(=O)N(C)CC)ccc1F (racemic) [Compound 342] | 10 | 30 | 20 | 30 | 40 | 100 | 100 | 10 | 70 | 90 | 70 | 85 | 55 | 100 | 100 | 0 | 40 | 60 | 80 | 100 | Plant response rating (0 = no effect, 100 = complete control), Surinam Grass (Surinam grass): 90; Plant response rating (0 = no effect, 100 = complete control), Corn (corn [2]; 125 g ai/ha): 50; Plant response rating, Crabgrass, Large (large crabgrass; 62 g ai/ha, scale 0 to 100): 60; Plant response rating (0 = no effect, 100 = complete control), Crabgrass, Large (large crabgrass; 125 g ai/ha): 60; Plant response rating (0 = no effect, 100 = complete control), Johnsongrass (johnsongrass; 125 g ai/ha): 100; Plant response rating (0 = no effect, 100 = complete control), Nutsedge, Yellow (yellow nutsedge; 125 g ai/ha): 0; Plant response rating (0 = no effect, 100 = complete control), Pigweed (pigweed; 125 g ai/ha): 90; Plant response rating, Pigweed (pigweed; [5]): 100; Plant response rating, Soybean (soybean; 62 g ai/ha, scale 0 to 100): 10; Plant response rating (0 = no effect, 100 = complete control), Soybean (soybean): 60; Plant response rating, Soybean (soybean; 250 g ai/ha, scale 0-100): 100; Plant response rating, Soybean (soybean; [5]): 100; Plant response rating, Velvetleaf (velvetleaf; 62 g ai/ha, scale 0 to 100): 50; Plant response rating (0 = no effect, 100 = complete control), Velvetleaf (velvetleaf): 60; Plant response rating, Velvetleaf (velvetleaf; 250 g ai/ha, scale 0-100): 100; Plant response rating, Velvetleaf (velvetleaf; [5]): 100
